According to patent US6953786B2, “Compositions comprising plant-derived polyphenolic compounds and inhibitors of reactive oxygen species and methods of using thereof” (The Regents of the University of California, priority 2002, dated 2005):

Key:
Mia PACA-2 cells = test: Oligonucleosomal DNA fragmentation by cell death ELISA; type: cell-based, human; conditions: Mia PACA-2, 72 hours, with serum; DPI 15 μM, Tiron 10 mM, genistein 100 μM, trans-resveratrol 100 or 50 μM
Procedure: Mia PACA-2 cells were cultured for 72 hours in the presence of serum with or without 15 μM DPI, 10 mM Tiron, 100 μM genistein, 100 μM or 50 μM trans-resveratrol, or a combination thereof. Oligonucleosomal DNA fragmentation was measured in cell lysates by cell death ELISA.
Annexin staining was conducted as described above. Cells were collected, washed with PBS, and centrifuged for 10 min at 200×g. DNA fragmentation was determined using Cell Death Detection ELISA Plus kit (Roche Molecular Biochemicals).
To determine the role of caspases in the effects of combinations of agents on apoptosis, the effects of caspase-3 activity (DEVDase activity) as well as the effect of the broad spectrum caspase inhibitor, Z-VAD, on apoptosis was measured. Specifically, Mia PACA-2 cells were cultured for 72 hours in the presence of serum with or without 100 μM Z-VAD, 15 μM DPI, 100 μM trans-resveratrol, 100 μM genistein, a combination of trans-resveratrol and DPI, and a combination of genistein and DPI. DEVDase activity was measured in whole cell lysates with a fluorimetric assay. DNA fragmentation was measured in cell lysates by cell death ELISA.
In particular, Mia PACA-2 cells were cultured for 72 hours in the presence of serum with or without 50 μM trans-resveratrol (RS), 15 μM DPI, a combination of DPI and trans-resveratrol (RS+DPI), 10 μM MG-132 alone and in combination with RS, DPI, and RS+DPI. Internucleosomal DNA fragmentation was measured in cell lysates by cell death ELISA.

BSp73AS cells = test: Oligonucleosomal DNA fragmentation (agarose gel); type: cell-based, rat; conditions: 6 hours, 100 μM, no serum
Procedure: To confirm the apoptosis in vivo results, the effects of quercetin, rutin, and trans-resveratrol in other apoptosis assays in Mia PACA-2 cells and BSp73AS cells in culture were conducted. BSp73AS cells are derived from a rat pancreatic carcinoma and both Mia PACA-2 and BSp73AS cells have mutated p53 and express K-ras. Human pancreatic carcinoma cell line Mia PACA-2 and rat pancreatic carcinoma BSp73AS were cultured in Dulbecco's Modified Eagle's Medium supplemented with 10% heat inactivated FBS, penicillin G (100 U/ml) and streptomycin ([…]) in a humidified atmosphere comprising 5% (v/v) CO2. When cells were 90% confluent they were detached, washed with alternating centrifugation and resuspension, plated and incubated in the same media without FBS and with the indicated concentrations of polyphenolic compounds or vehicle for up to 96 hours. Oligonucleotide DNA fragmentation, annexin staining, and PARP proteolysis assays were conducted as follows: BSp73AS pancreatic cancer cells were cultured for 6 hours in the presence or absence of 100 μM of rutin, quercetin, or trans-resveratrol. DNA was isolated as described by Gukovskaya AS, et al. (1997) Clin Invest 100: 1853-1862, which is herein incorporated by reference. […]

PARP = PARP proteolysis (Western blot); type: cell-based, rat; conditions: BSp73AS, 6 hours, 100 μM
Procedure: BSp73AS cells were cultured for 6 hours and Mia PACA-2 cells were cultured for 24 hours in the presence or absence of 100 μM of each rutin, quercetin or trans-resveratrol and with or without 50 μM of each […]. The cells were washed twice with PBS and lysed by incubating for 20 minutes at 4° C. in lysis buffer comprising 0.15 M NaCl, 50 mM Tris (pH 7.2), 1% deoxycholic acid (wt/vol), 1% Triton X-100 (wt/vol), 0.1% […] (wt/vol) and 1 mM PMSF, as well as 5 μg/ml each of protease inhibitors, pepstatin, leupeptin, chymostatin, antipain, and aprotinin. Then the cell lysates were centrifuged for 20 minutes at 15,000 g at 4° C. The supernatants were separated by 4-20% SDS-PAGE for 2 hours at 120 V using precast Tris-glycine gels and a Mini-Cell gel apparatus (Novex, San Diego, Calif.). Separated proteins were electrophoretically transferred to a nitrocellulose membrane for 2 hours at 30 V using a Novex Blot Module (Novex, San Diego, Calif.). Nonspecific binding was blocked by 1 hour incubation of nitrocellulose membranes in 5% (wt/vol) nonfat dry milk in Tris-buffered saline (TBS; pH 7.5). Blots were then incubated overnight at 4° C. with rabbit polyclonal antibody against poly (ADP-ribose) polymerase (PARP) (Santa Cruz Biotechnology, Santa Cruz, Calif.) (1;3,000) in an antibody buffer comprising (1% (wt/vol) non-fat dry milk in TTBS (0.05% vol/vol) Tween-20 in TBS), washed 3 times with TTBS and finally incubated for 1 hour with a peroxidase-labeled secondary antibody in the antibody buffer. Blots were developed for visualization using ECL detection kit. To test for equal protein loading, the blots were stripped and re-probed with an antibody against tubulin. When processing of a protein was measured, a decrease in unprocessed full-length form was measured concomitantly with the increase in the cleaved, active form. The experiment was repeated 3 times with similar results.

SMILES: O=c1c(-c2ccc(O)cc2)coc2cc(O)cc(O)c12 [genistein]
- oligonucleosomal DNA fragmentation (apoptosis) (Mia PACA-2 cells): either no or small effects

SMILES: O=c1c(O)c(-c2ccc(O)c(O)c2)oc2cc(O)cc(O)c12 [quercetin]
- oligonucleosomal DNA fragmentation (BSp73AS cells): caused an increase
- PARP cleavage (PARP): cleaved to its activated form

SMILES: Oc1ccc(/C=C/c2cc(O)cc(O)c2)cc1 [trans-resveratrol]
- oligonucleosomal DNA fragmentation (BSp73AS cells): caused an increase
- oligonucleosomal DNA fragmentation (apoptosis) (Mia PACA-2 cells): either no or small effects
- PARP cleavage (PARP): cleaved to its activated form
